{"source": "ChEMBL document CHEMBL1201862", "about": "“PubChem BioAssay data set” (2004)", "key": {"Cytochrome P450 2C19": {"molecular_target": "Cytochrome P450 2C19 (Homo sapiens, UniProt P33261)", "sequence (P33261 whole entry)": "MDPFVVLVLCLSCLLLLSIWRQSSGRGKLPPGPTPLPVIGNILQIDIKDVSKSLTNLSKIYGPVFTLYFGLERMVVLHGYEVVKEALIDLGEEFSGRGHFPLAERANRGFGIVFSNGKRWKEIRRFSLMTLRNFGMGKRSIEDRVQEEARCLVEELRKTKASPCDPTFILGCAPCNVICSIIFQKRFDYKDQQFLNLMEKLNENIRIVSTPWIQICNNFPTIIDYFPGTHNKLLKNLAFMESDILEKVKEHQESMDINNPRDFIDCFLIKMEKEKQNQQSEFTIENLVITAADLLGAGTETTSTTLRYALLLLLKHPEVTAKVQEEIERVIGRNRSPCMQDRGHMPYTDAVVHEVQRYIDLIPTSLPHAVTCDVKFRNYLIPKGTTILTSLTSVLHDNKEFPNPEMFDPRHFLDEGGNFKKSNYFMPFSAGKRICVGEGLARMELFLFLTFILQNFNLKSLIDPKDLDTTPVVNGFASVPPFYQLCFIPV", "test": "Cytochrome panel assay with activity outcomes. Panel member name: p450-cyp2c19 Compounds with AC50 equal or less than 10 uM are considered active", "type": "functional"}, "Cytochrome P450 2D6": {"molecular_target": "Cytochrome P450 2D6 (Homo sapiens, UniProt P10635)", "sequence (P10635 whole entry)": "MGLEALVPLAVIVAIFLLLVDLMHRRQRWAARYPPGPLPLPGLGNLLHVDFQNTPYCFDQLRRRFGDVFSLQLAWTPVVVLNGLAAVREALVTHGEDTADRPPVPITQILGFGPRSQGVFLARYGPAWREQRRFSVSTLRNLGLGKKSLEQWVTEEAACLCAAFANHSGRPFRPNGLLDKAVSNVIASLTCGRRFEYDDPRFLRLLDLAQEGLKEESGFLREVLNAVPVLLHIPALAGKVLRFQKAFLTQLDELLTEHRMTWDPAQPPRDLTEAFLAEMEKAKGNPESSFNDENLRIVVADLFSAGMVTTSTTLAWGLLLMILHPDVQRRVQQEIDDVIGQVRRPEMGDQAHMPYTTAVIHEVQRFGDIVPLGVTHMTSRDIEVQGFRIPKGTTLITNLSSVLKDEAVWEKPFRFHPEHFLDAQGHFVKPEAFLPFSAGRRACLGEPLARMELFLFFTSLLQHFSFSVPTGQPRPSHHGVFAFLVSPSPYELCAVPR"}, "[1]": {"test": "HEp-2 cell cytotoxicity, dose response, cytotoxicity control for RSV inhibitor project, HTS (AID 2410)", "type": "functional", "details": "human respiratory syncytial virus"}, "[2]": {"tested_on": "Streptococcus sp. 'group A'", "test": "growth inhibition of control SK(-) GAS strain, dose response, counter-screen for streptokinase expression inhibitor project, luminescence, kanamycin, BacTiterGlo, confirmation (AID 1900)", "type": "functional, organism-based"}, "Streptokinase A": {"molecular_target": "T1, Streptokinase A (Streptococcus pyogenes serotype M1, UniProt P10520)", "T1 sequence (P10520 whole entry)": "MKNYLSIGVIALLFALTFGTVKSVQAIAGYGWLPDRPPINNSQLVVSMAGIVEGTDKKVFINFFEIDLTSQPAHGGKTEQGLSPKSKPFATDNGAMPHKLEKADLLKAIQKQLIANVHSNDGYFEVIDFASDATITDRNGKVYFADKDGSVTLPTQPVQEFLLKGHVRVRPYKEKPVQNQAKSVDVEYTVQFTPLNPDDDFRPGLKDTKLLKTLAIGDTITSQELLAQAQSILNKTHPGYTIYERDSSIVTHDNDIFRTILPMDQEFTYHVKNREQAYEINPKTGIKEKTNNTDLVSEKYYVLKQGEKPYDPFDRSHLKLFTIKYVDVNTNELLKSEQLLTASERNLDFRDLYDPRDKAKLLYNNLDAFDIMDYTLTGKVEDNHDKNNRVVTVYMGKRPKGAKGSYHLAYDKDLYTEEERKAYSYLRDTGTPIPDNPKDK", "test": "S. pyogenes streptokinase expression inhibitors, potency, dose response, plasminogen activation absorbance, OD405 (AID 1914);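 further: secreted streptokinase activity via plasminogen activation per viability signal from cell pellet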", "type": "functional, Streptococcus pyogenes M1 GAS"}, "Streptococcus": {"tested_on": "Streptococcus", "test": "Group A Streptococcus viability loss, dose response, counter-screen for streptokinase expression inhibitor project, luminescence, BacTiterGlo (AID 1915);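 further: potency for reduction of bacterial viability or growth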", "type": "functional, organism-based"}, "[3]": {"molecular_target": "T2, Replicative DNA helicase DnaB (Mycobacterium tuberculosis, UniProt P9WMR3)", "T2 sequence (P9WMR3 whole entry)": "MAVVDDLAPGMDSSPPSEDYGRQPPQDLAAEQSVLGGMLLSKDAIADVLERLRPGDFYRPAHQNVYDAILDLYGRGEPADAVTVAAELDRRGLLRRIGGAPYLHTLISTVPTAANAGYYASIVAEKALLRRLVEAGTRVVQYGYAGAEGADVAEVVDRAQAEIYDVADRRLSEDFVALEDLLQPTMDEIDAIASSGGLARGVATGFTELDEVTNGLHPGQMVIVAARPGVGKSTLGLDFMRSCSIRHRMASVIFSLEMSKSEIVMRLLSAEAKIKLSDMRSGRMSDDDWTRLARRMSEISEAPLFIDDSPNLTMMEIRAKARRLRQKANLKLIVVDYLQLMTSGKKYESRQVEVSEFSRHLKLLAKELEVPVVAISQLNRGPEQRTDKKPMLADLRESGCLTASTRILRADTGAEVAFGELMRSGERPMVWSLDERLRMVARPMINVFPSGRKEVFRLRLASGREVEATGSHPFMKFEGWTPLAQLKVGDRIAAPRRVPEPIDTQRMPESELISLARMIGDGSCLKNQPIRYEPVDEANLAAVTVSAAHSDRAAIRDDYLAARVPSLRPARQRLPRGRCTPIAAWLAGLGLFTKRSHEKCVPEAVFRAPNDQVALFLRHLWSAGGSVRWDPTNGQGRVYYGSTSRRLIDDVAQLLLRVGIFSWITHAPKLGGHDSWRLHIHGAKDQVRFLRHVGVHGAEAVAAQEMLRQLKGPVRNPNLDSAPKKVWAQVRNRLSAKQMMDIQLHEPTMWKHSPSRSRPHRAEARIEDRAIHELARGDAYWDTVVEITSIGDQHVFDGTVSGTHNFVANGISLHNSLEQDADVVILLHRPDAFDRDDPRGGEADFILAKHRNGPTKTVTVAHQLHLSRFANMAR", "test": "DnaB intein splicing inhibitors, dose response, biochemical, cell-free fluorescence (AID 449749)", "type": "functional"}, "Protein RecA": {"molecular_target": "T3, Protein RecA (Mycobacterium tuberculosis, UniProt P9WHJ3)", "T3 sequence (P9WHJ3 whole entry)": "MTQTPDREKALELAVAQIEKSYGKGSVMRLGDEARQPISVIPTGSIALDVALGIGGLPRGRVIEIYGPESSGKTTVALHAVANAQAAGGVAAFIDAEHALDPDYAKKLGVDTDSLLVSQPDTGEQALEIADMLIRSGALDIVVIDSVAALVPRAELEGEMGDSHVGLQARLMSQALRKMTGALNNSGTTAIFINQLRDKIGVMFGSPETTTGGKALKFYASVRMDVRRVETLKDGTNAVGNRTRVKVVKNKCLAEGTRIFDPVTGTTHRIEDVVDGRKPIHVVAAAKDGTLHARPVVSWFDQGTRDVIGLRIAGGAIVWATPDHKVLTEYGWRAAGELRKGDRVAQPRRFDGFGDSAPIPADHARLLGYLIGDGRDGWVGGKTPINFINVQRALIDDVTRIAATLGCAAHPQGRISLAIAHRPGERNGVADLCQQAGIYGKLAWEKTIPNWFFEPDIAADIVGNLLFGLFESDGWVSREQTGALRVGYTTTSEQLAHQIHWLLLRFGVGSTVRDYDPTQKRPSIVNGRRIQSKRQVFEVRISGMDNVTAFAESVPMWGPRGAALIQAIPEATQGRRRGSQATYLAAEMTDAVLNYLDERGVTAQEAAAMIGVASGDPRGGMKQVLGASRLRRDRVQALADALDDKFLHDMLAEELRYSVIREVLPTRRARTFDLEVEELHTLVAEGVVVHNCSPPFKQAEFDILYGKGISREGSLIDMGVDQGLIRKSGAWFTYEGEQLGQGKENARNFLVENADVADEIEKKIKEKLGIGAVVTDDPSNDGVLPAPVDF", "test": "Fluorescence Cell-Free Homogeneous Dose Retest to Identify Inhibitors of RecA-Intein Splicing Activity. [Related pubchem assays (depositor defined):AID2097, AID2223, AID489010, AID492950]", "type": "functional"}, "[4]": {"molecular_target": "T4, Rac GTPase-activating protein 1 (Homo sapiens, UniProt Q9H0H5)", "T4 sequence (Q9H0H5 whole entry)": "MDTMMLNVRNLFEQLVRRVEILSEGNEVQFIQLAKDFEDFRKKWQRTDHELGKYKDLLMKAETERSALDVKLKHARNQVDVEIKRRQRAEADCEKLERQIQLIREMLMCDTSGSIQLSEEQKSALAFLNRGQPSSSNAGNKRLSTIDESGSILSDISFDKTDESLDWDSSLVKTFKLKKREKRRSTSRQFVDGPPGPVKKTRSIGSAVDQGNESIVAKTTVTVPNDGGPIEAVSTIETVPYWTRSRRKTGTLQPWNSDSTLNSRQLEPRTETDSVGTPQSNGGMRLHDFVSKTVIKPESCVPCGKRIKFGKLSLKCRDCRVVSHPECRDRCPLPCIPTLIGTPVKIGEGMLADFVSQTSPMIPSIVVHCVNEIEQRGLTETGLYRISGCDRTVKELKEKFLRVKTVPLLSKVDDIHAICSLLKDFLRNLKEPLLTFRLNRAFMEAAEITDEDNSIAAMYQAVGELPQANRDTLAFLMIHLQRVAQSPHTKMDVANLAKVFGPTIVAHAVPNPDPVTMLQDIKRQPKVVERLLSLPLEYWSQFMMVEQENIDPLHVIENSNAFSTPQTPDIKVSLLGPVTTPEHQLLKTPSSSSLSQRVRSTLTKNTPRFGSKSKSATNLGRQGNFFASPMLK", "test": "MgcRacGAP GTPase-activating activity inhibitors, confirmation, biochemical, ADP Hunter fluorescence, primary and confirmatory (AID 624330)", "type": "functional"}, "Cytochrome P450 2C9": {"molecular_target": "Cytochrome P450 2C9 (Homo sapiens, UniProt P11712)", "sequence (P11712 whole entry)": "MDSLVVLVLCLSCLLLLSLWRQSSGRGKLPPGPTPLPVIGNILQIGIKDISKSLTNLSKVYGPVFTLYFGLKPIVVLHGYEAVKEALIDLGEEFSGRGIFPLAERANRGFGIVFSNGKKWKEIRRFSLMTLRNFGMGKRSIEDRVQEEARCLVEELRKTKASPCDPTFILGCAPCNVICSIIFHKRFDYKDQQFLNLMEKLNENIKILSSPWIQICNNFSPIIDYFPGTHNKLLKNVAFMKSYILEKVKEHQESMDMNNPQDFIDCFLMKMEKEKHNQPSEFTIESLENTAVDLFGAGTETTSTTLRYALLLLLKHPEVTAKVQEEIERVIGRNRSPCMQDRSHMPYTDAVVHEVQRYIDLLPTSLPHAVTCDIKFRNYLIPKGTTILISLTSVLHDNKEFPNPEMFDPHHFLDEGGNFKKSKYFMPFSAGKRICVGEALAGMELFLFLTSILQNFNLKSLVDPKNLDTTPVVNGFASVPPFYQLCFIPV"}, "H4": {"tested_on": "H4", "test": "Luminescence Cell-Based Dose Response HTS to Identify Activators of 5'UTR Stem-Loop Driven Prion Protein mRNA Translation in H4 Neuroglioblastoma Cells. [Related pubchem assays: 1829 (Project Summary), 1814 (Primary HTS)]", "type": "functional", "details": "Homo sapiens"}}, "note": "Calls of active or inactive are those of the source."}
{"smiles": "COc1ccc(C2c3c(ncn(CCN4CCOCC4)c3=N)Oc3ccc4ccccc4c32)cc1OC", "note": "(centres undefined)", "values": [{"measurement": "AC50", "setting": "Cytochrome P450 2C19; read-out: AC50", "value": "25.1 µM (inconclusive)"}, {"measurement": "AC50", "setting": "Cytochrome P450 2D6", "value": "15.8 µM (inconclusive)"}]}
{"smiles": "COc1cc2c(cc1NC(=O)CSc1nnnn1-c1ccccc1)oc1ccccc12", "values": [{"measurement": "CC50", "setting": "[1]", "value": "15.6 µM (active)"}]}
{"smiles": "Nc1ccccc1Sc1nc2ccccc2[nH]1", "values": [{"measurement": "EC50", "setting": "[2]", "value": "21.3 µM (active)"}, {"measurement": "EC50", "setting": "Streptokinase A", "value": "> 150 µM (not active)"}, {"measurement": "EC50", "setting": "Streptococcus", "value": "> 150 µM (not active)"}]}
{"smiles": "O=C(O)CC[P+](c1ccccc1)(c1ccccc1)c1ccccc1", "values": [{"measurement": "AC50", "setting": "Cytochrome P450 2C19", "value": "inconclusive"}, {"measurement": "AC50", "setting": "Cytochrome P450 2D6", "value": "3.98 µM (inconclusive)"}]}
{"smiles": "COc1cccc(C2=CC(c3ccc(OC)c(OC)c3OC)n3nnnc3N2)c1", "note": "(centres undefined)", "values": [{"measurement": "CC50", "setting": "[1]", "value": "6.56 µM (active)"}]}
{"smiles": "Cc1nc(Nc2ccc(O)cc2)c2c3c(sc2n1)CCCC3", "values": [{"measurement": "AC50", "setting": "[3]", "value": "> 380 µM (inactive)"}, {"measurement": "EC50", "setting": "Protein RecA", "value": "125 µM (active)"}, {"measurement": "IC50", "setting": "[4]", "value": "28.8 µM (active)"}]}
{"smiles": "COc1cccc(Cn2c(=O)cnc3cnc(Oc4cccc(Cl)c4)nc32)c1", "values": [{"measurement": "AC50", "setting": "Cytochrome P450 2D6", "value": "39.8 µM (inconclusive)"}]}
{"smiles": "CCCn1c(N)c(C(=O)CSc2nc(C)cs2)c(=O)n(C)c1=O", "values": [{"measurement": "AC50", "setting": "Cytochrome P450 2D6", "value": "20 µM (inconclusive)"}, {"measurement": "AC50", "setting": "Cytochrome P450 2C9", "value": "28.2 µM (inconclusive)"}]}
{"smiles": "Cc1ccc2c(CC(=O)N3CCc4ccccc43)coc2c1", "values": [{"measurement": "EC50", "setting": "H4", "value": "18.5 µM (active)"}]}
{"smiles": "O=S(=O)(c1ccccc1)N1CCC2(CCCN(c3ccccc3)C2)CC1", "values": [{"measurement": "AC50", "setting": "Cytochrome P450 2D6", "value": "10 µM (inconclusive)"}]}
{"smiles": "Cc1cc(OC(=O)CCCNC(=O)OC(C)(C)C)c2c3c(c(=O)oc2c1)CCC3", "values": [{"measurement": "AC50", "setting": "Cytochrome P450 2D6", "value": "15.8 µM (inconclusive)"}]}
{"smiles": "Cc1cc(=O)oc2cc(OCC(=O)N3CCN(C(=O)C4COc5ccccc5O4)CC3)ccc12", "note": "(centres undefined)", "values": [{"measurement": "EC50", "setting": "[2]", "value": "2.83 µM (active)"}, {"measurement": "EC50", "setting": "Streptokinase A", "value": "> 50 µM (not active)"}, {"measurement": "EC50", "setting": "Streptococcus", "value": "10.4 µM (active)"}]}
{"smiles": "CCOC(=O)c1c(S(=O)(=O)N2CCCCCC2)c(C)n(C)c1C", "values": [{"measurement": "EC50", "setting": "[2]", "value": "> 150 µM (not active)"}, {"measurement": "EC50", "setting": "Streptokinase A", "value": "> 150 µM (not active)"}, {"measurement": "EC50", "setting": "Streptococcus", "value": "> 150 µM (not active)"}]}
